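Briefly, cells in 96-well plates were exposed to five compound concentrations for 48 h, and endpoints were estimated by linear interpolation. GI50: concentration for 50% inhibition of growth. TGI is the concentration that stops growth completely.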 Some results are limits rather than exact numbers.

Test systems include SNB-75 CNS; KM20L2 colon; M19-MEL melanoma; OVCAR-3 ovarian; EKVX NSCLC; OVCAR-8 ovarian; HCT-116 colon; HCC-2998 colon; MDA-MB-231 breast; BT-549 breast.
Holding throughout (test): NCI-60 cell line screen, 48 h

In the case of `Cc1c(C(=O)CC(=O)C(=O)Nc2ccc(Cl)cc2)[n+](=O)c2ccccc2n1[O-]`, the TGI with SNB-75 CNS, with KM20L2 colon, with M19-MEL melanoma, in the assay with OVCAR-3 ovarian, with EKVX NSCLC and in the assay on OVCAR-8 ovarian was above 100 µM throughout. The TGI with HCT-116 colon is above 100 µM.
Take `COc1ccc(S(=O)(=O)N/N=C/c2cc(I)cc([N+](=O)[O-])c2O)cc1OC`: the TGI was above 100 µM in the assay with KM20L2 colon; 99.2 µM with M19-MEL melanoma; above 100 µM in the assay with HCC-2998 colon; 66.3 µM with OVCAR-3 ovarian; above 100 µM with EKVX NSCLC; above 100 µM with OVCAR-8 ovarian.
Consider `COc1ccc(CC(=O)NCCc2ccc(OC)c(OC)c2)cc1Br`, for which the TGI in the assay on KM20L2 colon, with HCC-2998 colon, in the assay with EKVX NSCLC and in the assay with OVCAR-8 ovarian was above 100 µM throughout.
On to `CN(C)CCNC(=O)c1cccc2[nH]c(-c3cccnc3)nc12`, for which the TGI in the assay on SNB-75 CNS is 73.3 µM; in the assay with M19-MEL melanoma, 39.8 µM; with HCC-2998 colon, 43.4 µM; in the assay with OVCAR-3 ovarian it was 56.3 µM; in the assay on EKVX NSCLC it was 56.5 µM; in the assay on OVCAR-8 ovarian it was 44.1 µM. Moreover, the TGI in the assay with HCT-116 colon came to 42.8 µM.
`O=[N+]([O-])c1cc(C2SCc3nc4ccccc4n32)ccc1Cl` (stereo not drawn): the TGI in the assay with SNB-75 CNS was above 100 µM; with M19-MEL melanoma, 53.9 µM; in the assay on HCC-2998 colon, 34.3 µM; in the assay on OVCAR-3 ovarian, 67.6 µM; with EKVX NSCLC, above 100 µM; with OVCAR-8 ovarian, above 100 µM. The TGI in the assay with HCT-116 colon turned out to be 40.4 µM.
In the case of `O=C(O)CCSC(=O)Nc1ccccc1F`, the TGI in the assay on KM20L2 colon, in the assay on HCC-2998 colon, with OVCAR-3 ovarian, in the assay on EKVX NSCLC and in the assay with HCT-116 colon was above 100 µM throughout.
For the molecule `C[N+]1(C)C/C(=C\c2ccccc2)C(=O)/C(=C/c2ccccc2)C1`, the TGI in the assay with SNB-75 CNS, with KM20L2 colon, in the assay with M19-MEL melanoma, in the assay with HCC-2998 colon, with OVCAR-3 ovarian and in the assay on OVCAR-8 ovarian was above 100 µM throughout. Besides, the TGI in the assay on HCT-116 colon is above 100 µM.
With `CCN(CC)CCn1c2ccccc2c(=O)c2c(O)ccc(O)c21`, the TGI in the assay with SNB-75 CNS is 49.5 µM; with KM20L2 colon, above 100 µM; in the assay with MDA-MB-231 breast it was 29.9 µM; with HCC-2998 colon it was above 57.7 µM; with BT-549 breast, 44.7 µM; in the assay with OVCAR-3 ovarian it was 47.6 µM. In addition, the values for the TGI with EKVX NSCLC, with OVCAR-8 ovarian and in the assay on HCT-116 colon were above 46.4 µM, 48.2 µM and 58.6 µM, respectively.
As to `C/C=C1/CCC2c3[nH]c4ccccc4c3CCN2C1` (stereo not drawn), the TGI in the assay with SNB-75 CNS, in the assay on KM20L2 colon, with M19-MEL melanoma, in the assay with OVCAR-3 ovarian, in the assay with EKVX NSCLC and with OVCAR-8 ovarian was above 100 µM each time. The TGI with HCT-116 colon is above 100 µM.
For `Fc1ccccc1C1SCc2nc3ccccc3n21` (stereo not drawn), the TGI in the assay on SNB-75 CNS, in the assay on M19-MEL melanoma, in the assay with HCC-2998 colon, in the assay on OVCAR-3 ovarian, in the assay on EKVX NSCLC and in the assay on OVCAR-8 ovarian was above 100 µM throughout. The molecule further came in with a TGI in the assay on HCT-116 colon above 100 µM.
`NCCN.NCCN.O=C([O-])CCl.O=C([O-])CCl.[Co+3].[O-][Cl+3]([O-])([O-])[O-]`: the GI50 was 74.7 µM in the assay on SNB-75 CNS; above 100 µM in the assay with KM20L2 colon; above 100 µM with HCC-2998 colon; above 100 µM with OVCAR-3 ovarian; above 100 µM with EKVX NSCLC; above 100 µM in the assay with OVCAR-8 ovarian. Also, the GI50 in the assay with HCT-116 colon was above 100 µM. For the same molecule, the TGI in the assay with SNB-75 CNS, with KM20L2 colon, with HCC-2998 colon, in the assay with OVCAR-3 ovarian, with EKVX NSCLC and with OVCAR-8 ovarian was above 100 µM in each case. In addition, the TGI with HCT-116 colon was above 100 µM.
Consider `Cc1ccc([N+](=O)[O-])cc1NC(=O)c1cccc([N+](=O)[O-])c1O`, for which the TGI was 43.7 µM with SNB-75 CNS; above 100 µM in the assay on KM20L2 colon; 56 µM in the assay on M19-MEL melanoma; 64.6 µM in the assay with OVCAR-3 ovarian; 72 µM with EKVX NSCLC; above 100 µM in the assay on OVCAR-8 ovarian.
For the molecule `Cc1[nH]c(=O)n2c(C)nnc2c1C(=O)Nc1cc(Cl)cc(Cl)c1`, the TGI was 88.9 µM with SNB-75 CNS; 91.9 µM in the assay with M19-MEL melanoma; 40.8 µM in the assay on OVCAR-3 ovarian; above 100 µM in the assay on EKVX NSCLC; above 100 µM in the assay with OVCAR-8 ovarian; above 100 µM in the assay on HCT-116 colon.
Take `CNCCNc1c2c(c(NCCNC)c3[nH]ccc13)C(=O)c1ccccc1C2=O`: the GI50 was 3.5 µM with SNB-75 CNS; 0.1 µM with MDA-MB-231 breast; 0.203 µM in the assay on HCC-2998 colon; 4 µM in the assay on BT-549 breast; 0.174 µM with OVCAR-3 ovarian; 1.33 µM with EKVX NSCLC. The results for the GI50 with OVCAR-8 ovarian and in the assay with HCT-116 colon were 0.0578 µM and 0.0269 µM, respectively. In addition, the TGI in the assay with SNB-75 CNS was 8.86 µM; in the assay with MDA-MB-231 breast, 0.33 µM; with HCC-2998 colon it was 0.649 µM; in the assay on BT-549 breast, 8.21 µM; in the assay with OVCAR-3 ovarian, 0.887 µM; in the assay on EKVX NSCLC it was 4.13 µM. Moreover, the TGI in the assay on OVCAR-8 ovarian amounted to 0.393 µM; in the assay with HCT-116 colon it was 0.498 µM.

These data come from PubChem BioAssay (NCI).
